Paper PMC12198282, “Application of a high-density microelectrode array assay using a 3D human iPSC-derived brain microphysiological system model for in vitro neurotoxicity screening of environmental compounds” (Archives of Toxicology, 2025)
Read-outs that look alike come from different tables or passages of the source. Marks after values point to notes of the source that are not given here.

How the values were obtained:
[1] = test system: BrainSpheres; assay: Cytotoxicity evaluation, resazurin assay (BrainSphere.Cyto); type: cell-based, human; conditions: for AC50: read-out: ac50 BrainSphere.Cyto; for Top BrainSphere.Cyto: top of winning model, response normalized as percent of vehicle control, negative = decrease; for hitc BrainSphere.Cyto: key: 1 (active); 0 (inactive)
Description: For the resazurin assay, BrainSpheres were cultured for 7 weeks in non-treated 6-well plates under gyratory shaking. Subsequently, the cells were exposed in the same manner as the HD-MEA plates. This assay was used to determine cell viability after exposure for 13 days to the different compounds. After exposure, resazurin diluted in PBS was added directly to the 6-well plates to a final concentration of 0.1 mg/ml. The plates were then put in an incubator for 3 h at 37 °C, 5% CO2. Then, 100 µl of the media was collected and transferred in a 96-well plate for fluorescence analysis, which was done at ex:530 nm/em:590 nm in a multi-well fluorometric reader CytoFluor series 4000 (PerSeptive Biosystems, Inc).
Ten metrics were measured to evaluate changes in neural activity in the BrainSphere MEA assay (Table 3). Considering the complexity of the data which includes seven recording days for each single ROI in a well, an area under the curve (AUC) metric was used to reduce activity across time as described in previous publications (Brown et al. [2016]; Frank et al. [2017b]; Shafer et al. [2019]). […] For concentration–response modeling, the mean AUC values across all the BrainSpheres per well (technical replicates) was computed for each endpoint, such that each concentration included biological replicates from at least three separate wells on three separate plates, representing each individual experiment. The mean AUC values were used for concentration–response modeling using the R package tcplfit2 (version 0.1.6) (Sheffield et al. [2022]). Data were normalized as a percent of vehicle control wells by plate using the equation: resp.pc=rval-bval/bval×100 where resp.pc is the percent of control value, rval is the response value, and bval is the baseline value (defined as the mean of the vehicle control and the lowest tested concentration). […] The activity cutoff was defined as 3 times the median absolute deviation (bmad) of baseline values. A curve was defined as ‘active’ if the continuous hit call was ≥ 0.9. See Supplemental Table 1 for the bmad, activity cutoff threshold, SD, and benchmark response for each endpoint in the BrainSphere MEA. Potency was defined as the concentration at 50% maximal activity (AC50 log10 µM).

[2] = test system: co-culture of iPSC-derived excitatory and inhibitory neurons, and primary human astrocytes; design: method as in Bartmann et al. [2023]; conditions: ref Bartmann et al. [2023], cited from earlier work
[3] = Homo sapiens, 312 h, resazurin, day 13, Supplement 3 prints it also for curves with hit call 0
[4] = tcplfit2 BMD at benchmark response (1.349*SD of baseline controls)
[5] = resazurin, after 13 days of exposure
[6] = tcplfit2 output ACC, activity cutoff in Supplemental Table 1
[7] = resazurin, day 13, Supplement 3 prints it also for curves with hit call 0

## CC(=O)Nc1ccc(O)cc1 [Acetaminophen]
[1]; Homo sapiens, 312 h
  AC50: 45 µM
[1]; human
  BMD BrainSphere.Cyto: 174 µM
  Cytotoxicity hit: 0
  hitc BrainSphere.Cyto: 0

## CC1(C)S[C@@H]2[C@H](NC(=O)[C@H](N)c3ccc(O)cc3)C(=O)N2[C@H]1C(=O)O [Amoxicillin]
[1]; [3]
  AC50: 45 µM
[1]; human
  Cytotoxicity hit: 0
[1]; resazurin, day 13, tcplfit2
  hitc BrainSphere.Cyto: 0
[1]; [4]
  BMD BrainSphere.Cyto: 94 µM

## ClC1=C(Cl)[C@]2(Cl)[C@@H]3[C@@H]4C[C@@H]([C@H]5O[C@@H]45)[C@@H]3[C@@]1(Cl)C2(Cl)Cl [Dieldrin]
[1]; [3]
  AC50: 45 µM
[1]; [5]
  Cytotoxicity hit: 0
[1]; resazurin, day 13, tcplfit2
  hitc BrainSphere.Cyto: 0
[1]; [4]
  BMD BrainSphere.Cyto: 509 µM

## CC(C)(c1ccc(O)cc1)c1ccc(O)cc1 [Bisphenol A]
[1]; [3]
  AC50: 6.8 µM
[1]; [5]
  Cytotoxicity hit: 0
[1]; resazurin, day 13, tcplfit2
  hitc BrainSphere.Cyto: 0
[1]; [4]
  BMD BrainSphere.Cyto: 680 µM
[1]; [6]
  ACC BrainSphere.Cyto: 11523 µM

## Brc1ccc(Oc2ccc(Br)cc2Br)c(Br)c1 [BDE- 47]
[1]; [5]
  Cytotoxicity hit: 0
[1]; resazurin, day 13, tcplfit2
  hitc BrainSphere.Cyto: 0
[1]; [7]
  AC50: 45 µM
[1]; [4]
  BMD BrainSphere.Cyto: 79 µM
[1]; [6]
  ACC BrainSphere.Cyto: 89 µM
[1]
  Top BrainSphere.Cyto: 4.9

## CC1(C)[C@H](C(=O)O[C@H](C#N)c2cccc(Oc3ccccc3)c2)[C@@H]1C=C(Br)Br [Deltamethrin]
[1]
  Cytotoxicity / cell viability in the BrainSphere resazurin assay (in words): magnitude of the response was not sufficient to indicate a positive response
[1]; [3]
  AC50: 45 µM
[1]; human
  Cytotoxicity hit: 0
[1]; resazurin, day 13, tcplfit2
  hitc BrainSphere.Cyto: 0
[1]; [4]
  BMD BrainSphere.Cyto: 102 µM
[2]; read-out: Mean potency in the hNNF
  EC50: 3.53 µM
[2]; read-out: Minimum potency in the hNNF
  EC50: 2.74 µM

## CN(C)C(=O)C(CCN1CCC(O)(c2ccc(Cl)cc2)CC1)(c1ccccc1)c1ccccc1 [Loperamide]
[1]
  Cytotoxicity / cell viability in the BrainSphere resazurin assay (in words): positive hit call for cytotoxicity
  AC50: 18.1 µM
[1]; Homo sapiens, 312 h
  AC50: 18 µM
[1]; human
  ACC BrainSphere.Cyto: 8.7 µM
  BMD BrainSphere.Cyto: 8.4 µM
  Cytotoxicity / cell viability in the BrainSphere resazurin assay (in words): appeared to demonstrate cytotoxic effects at 30 and 90 µM
  Cytotoxicity hit: 1*
  hitc BrainSphere.Cyto: 1

## [CH3][Hg][Cl] [Methylmercury]
[1]; day 13 of exposure
  Cytotoxicity / cell viability in the BrainSphere resazurin assay (in words): magnitude of the response was not sufficient to indicate a positive response
[1]; [5]
  Cytotoxicity hit: 0
[1]; resazurin, day 13, tcplfit2
  hitc BrainSphere.Cyto: 0
[1]; [7]
  AC50: 0.19 µM
[1]; [4]
  BMD BrainSphere.Cyto: 0.15 µM
[1]; [6]
  ACC BrainSphere.Cyto: 0.18 µM
[1]
  Top BrainSphere.Cyto: −10

## CCCC(CCC)C(=O)O [Sodium valproate]
[1]; [3]
  AC50: 45 µM
[1]; human
  BMD BrainSphere.Cyto: 117 µM
  Cytotoxicity hit: 0
  hitc BrainSphere.Cyto: 0

## C/C(=C/C=C/[C@@H](C)C(=O)O)[C@H]1CN[C@H](C(=O)O)[C@H]1CC(=O)O [Domoic acid]
[1]; Homo sapiens, 312 h
  AC50: 5 µM
[1]; day 13 of exposure
  Cytotoxicity / cell viability in the BrainSphere resazurin assay (in words): magnitude of the response was not sufficient to indicate a positive response
[1]; [5]
  Cytotoxicity hit: 0
[1]; resazurin, day 13, tcplfit2
  hitc BrainSphere.Cyto: 0
[1]; [4]
  BMD BrainSphere.Cyto: 4.5 µM
[1]; [6]
  ACC BrainSphere.Cyto: 5.4 µM
